Experimental findings from publication PMC3199744, “Preformulation and stability in biological fluids of the retrocyclin RC-101, a potential anti-HIV topical microbicide” (AIDS Research and Therapy, 2011) are described below.

Data set [1] deals with normal vaginal microflora. The note with it: preliminary studies, data not shown.
The subject of data set [2] is human ectocervical tissue. The note with it: preliminary studies, data not shown.
Data set [3] can be described thus: Oxidation of RC-101 by hydrogen peroxide, HPLC. The note with it: EDTA 1.0 μg/mL, H2O2 0.002%, RC-101 500 μg/mL, HPLC over time.
Protocol: For all pre-formulation studies described below, triplicate solutions of RC-101 (500 μg/mL) were prepared in either water or aqueous buffer solution. Thermal degradation studies were conducted at 25, 37, and 65°C for a minimum period of 1 week. The effect of pH on the stability of RC-101 was evaluated over the pH range from 3 to 12 using 10 mM phosphate buffer solutions, at low (50 mmol/kg) and high (500 mmol/kg) ionic strength. Oxidation of RC-101 was evaluated by exposing a solution of RC-101 to hydrogen peroxide (H2O2) at concentrations of 3.0, 0.08, and 0.002% (v/v). The high H2O2 concentration (3.0%) was selected as a forced degradation concentration. […] Protection against oxidation was investigated by the addition of antioxidants commonly used in pharmaceutical products. The antioxidants used in this study were: methionine (95.2 μg/mL or 250 μg/mL), cysteine (95.2 μg/mL), glutathione (90.9 μg/mL), vitamin E TPGS (90.9 μg/mL), ascorbic acid (1.0 mg/mL), sodium ascorbate (1.0 mg/mL), and EDTA (1.0 μg/mL).
RC-101 concentration after exposure to preformulation conditions was analyzed by HPLC as previously described [11]. Briefly, the HPLC system (Waters Corporation, Milford, MA) was equipped with an autoinjector model 717, a quaternary pump model 600, and an ultraviolet (UV) detector model 2487 set up at 215 nm. Separation of RC-101 from degradant products was achieved using a Phenomenex Jupiter 5 μC5 300 Å (4.6 × 250 mm) column (Phenomenex, Torrance, CA) protected by a Widepore C5 (4 × 3.0 mm) guard cartridge (Phenomenex). The gradient consisted of mobile phase A (0.1% TFA in water (v/v)), and mobile phase B (0.07% TFA in acetonitrile (v/v)) pumped at a flow rate of 1.0 mL/min. […]
HPLC data obtained from the preformulation studies were expressed as the average percentage of the peak area from time 0 ± standard deviation, n = 3. Results were analyzed by one-way analysis of variance (ANOVA) with multiple comparisons of individual time points by using post hoc Bonferroni correction to detect significant differences under different conditions. […]

A value given as a limit tells only on which side of the number the result lay.

Consider `O=C(O)CN(CCN(CC(=O)O)CC(=O)O)CC(=O)O` [EDTA, Ethylenediamine tetraacetic acid], for which the toxic concentration in data set [1] and in data set [2] was ≥ 1% throughout. Also, the “protection of RC-101 against oxidation after exposure to H2O2” value in data set [3] is “protection”.
